Measured values as given in patent US20070225330A1, “USE OF CERTAIN PHENYL-NAPHTHYL COMPOUNDS THAT DO NOT HAVE SIGNIFICANT AFFINITY TO ER ALPHA OR ER BETA FOR PROTECTION OF NEURONS AND OLIGODENDROCYTES IN THE TREATMENT OF MULTIPLE SCLEROSIS” (AVENTIS PHARMACEUTICALS INC., priority 2004, published 2007).

Legend:
[1] = system: Primary rat oligodendrocyte progenitor cells; assay: Oligodendrocyte toxicity assay (LDH release, protection against toxin-induced toxicity); assay type: cell-based; settings: compound pretreatment 1 hour, LDH after 24 hours; for Oligodendrocyte progenitor protection against Camptothecin: Camptothecin 10 μM; for Oligodendrocyte progenitor protection against SIN-1: SIN-1 10 mM
Protocol: Oligodendrocyte Toxicity Assay
Primary rat oligodendrocyte progenitor cells were obtained from the cerebra of 2-3 day old postnatal rats (Sprague Dawley). The meninges were removed and tissue was mechanically dissociated. Cells were plated on T75 flasks and fed with DMEM+10% FBS.
Enriched OLPs were collected by mechanical separation from the astrocytic monolayer and were expanded in serum free media (SFM) supplemented with the mitogens, PDGF-AA (10 ng/ml) and FGF-2 (10 ng/ml).
To generate mature oligodendrocytes, progenitor cells were switched to SFM supplemented with IGF-1 (10 ng/ml) 24 hours after plating and cells were grown under these conditions for 7 days prior to experimental assays.
Cells were plated in 96-well plates, 10,000 per well. Medium was changed to fresh medium and cells were pretreated with compounds for 1 hour. Toxins were added to give the following final concentrations:
After 24 hours, medium was removed and assayed for LDH activity using the Promega cytotox 96 kit (catalog #G1780). Results were calculated as percent protection against toxin-induced toxicity.

[2] = target: ER β (Homo sapiens, UniProt Q92731); assay: Affinity for ER receptors (β); assay type: binding; settings: unit not given
[3] = target: T1, ER α (Homo sapiens, UniProt P03372); assay: Affinity for ER receptors (α); assay type: binding; settings: unit not given
T1 sequence (P03372 1-595): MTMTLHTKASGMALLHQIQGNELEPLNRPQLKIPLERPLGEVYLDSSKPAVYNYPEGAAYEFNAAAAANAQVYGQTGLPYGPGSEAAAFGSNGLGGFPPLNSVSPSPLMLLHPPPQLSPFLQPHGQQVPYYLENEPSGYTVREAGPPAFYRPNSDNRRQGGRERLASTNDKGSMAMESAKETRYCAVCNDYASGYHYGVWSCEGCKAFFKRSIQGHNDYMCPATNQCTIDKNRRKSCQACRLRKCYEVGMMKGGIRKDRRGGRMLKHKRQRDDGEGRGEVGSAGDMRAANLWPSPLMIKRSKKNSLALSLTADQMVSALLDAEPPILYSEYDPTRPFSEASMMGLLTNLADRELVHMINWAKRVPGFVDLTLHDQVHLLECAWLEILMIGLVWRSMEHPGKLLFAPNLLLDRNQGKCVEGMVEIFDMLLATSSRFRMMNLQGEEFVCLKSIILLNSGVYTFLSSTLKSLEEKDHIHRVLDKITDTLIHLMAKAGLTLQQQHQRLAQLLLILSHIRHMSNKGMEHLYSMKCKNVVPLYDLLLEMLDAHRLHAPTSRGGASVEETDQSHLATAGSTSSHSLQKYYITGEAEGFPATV

ER β, sequence (Q92731 whole entry): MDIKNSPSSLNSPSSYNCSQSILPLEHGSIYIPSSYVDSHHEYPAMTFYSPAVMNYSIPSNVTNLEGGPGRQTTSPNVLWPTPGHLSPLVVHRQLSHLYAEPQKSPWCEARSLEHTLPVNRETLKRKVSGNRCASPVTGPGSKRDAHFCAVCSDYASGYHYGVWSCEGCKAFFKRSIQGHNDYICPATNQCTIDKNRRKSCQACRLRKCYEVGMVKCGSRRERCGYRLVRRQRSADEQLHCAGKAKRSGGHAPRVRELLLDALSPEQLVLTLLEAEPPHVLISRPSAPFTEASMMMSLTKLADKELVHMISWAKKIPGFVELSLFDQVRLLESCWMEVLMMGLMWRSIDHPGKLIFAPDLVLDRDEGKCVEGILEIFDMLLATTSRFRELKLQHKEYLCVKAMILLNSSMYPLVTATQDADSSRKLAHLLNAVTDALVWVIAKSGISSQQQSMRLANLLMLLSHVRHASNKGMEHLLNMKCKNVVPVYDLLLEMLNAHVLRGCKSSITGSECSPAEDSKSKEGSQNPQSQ

Affinity for ER receptors* β [2] | Affinity for ER receptors* α [3] | Compound | Oligodendrocyte progenitor protection against Camptothecin [1] | Oligodendrocyte progenitor protection against SIN-1 [1]
– | – | COc1ccc(-c2sc3cc(O)ccc3c2Oc2ccc(OCCN3CCCCC3)cc2)cc1 [Compound 10, Arzoxifen] | Very effective | Very effective
14.7 | 408 | Oc1ccc(-c2ccc3cc(O)ccc3c2)cc1 [Compound 7, 6-(4-Hydroxy-phenyl)-2-naphthalenol] | Effective | Effective
3 | 35.4 | Oc1ccc(-c2ccc3cc(O)ccc3c2Cl)cc1 [Compound 4, 5-chloro-6-(4-hydroxyphenyl)-2-naphthalenol] | Effective | Effective

Compound | Affinity for ER receptors* β [2] | Affinity for ER receptors* α [3] | Oligodendrocyte progenitor protection against Camptothecin [1] | Oligodendrocyte progenitor protection against SIN-1 [1]
C[C@@]12CCc3cc(O)ccc3[C@H]1CC[C@@]1(C)[C@H]2CC[C@@H]1O [Compound 11, Estrogen] | 6.1 | 1.17 | Effective | Effective
